Results as given in the NIST ThermoML archive (doi:10.1021/je049652j).
Numbers after ± are expanded uncertainties.

Assay: molar heat capacity at constant pressure
Settings: 101.33 kPa, Liquid

CCCCCCCl [1-chlorohexane]
Settings	molar heat capacity at constant pressure [J/K/mol]
284.15 K	212.36 ± 1.1
286.65 K	213.23 ± 1.1
289.15 K	213.91 ± 1.1
291.65 K	214.63 ± 1.1
294.15 K	215.4 ± 1.1
296.65 K	216.12 ± 1.1
299.15 K	216.95 ± 1.1
301.65 K	217.75 ± 1.1
304.15 K	218.44 ± 1.1
306.65 K	219.22 ± 1.1
309.15 K	219.99 ± 1.1
311.65 K	221 ± 1.1
314.15 K	221.78 ± 1.1
316.65 K	222.49 ± 1.1
319.15 K	223.43 ± 1.1
321.65 K	224.31 ± 1.1
324.15 K	224.7 ± 1.1
326.65 K	226.02 ± 1.1
329.15 K	227.13 ± 1.1
331.65 K	228.86 ± 1.1
334.15 K	228.99 ± 1.1
336.65 K	229.44 ± 1.1
339.15 K	230.06 ± 1.1
341.65 K	231.22 ± 1.2
344.15 K	231.83 ± 1.2
346.65 K	232.32 ± 1.2
349.15 K	233.18 ± 1.2
351.65 K	234.56 ± 1.2
353.15 K	235.17 ± 1.2

CCCCCCCCCl [1-chlorooctane]
Settings	molar heat capacity at constant pressure [J/K/mol]
284.15 K	269.76 ± 1.4
286.65 K	270.79 ± 1.4
289.15 K	271.83 ± 1.4
291.65 K	272.66 ± 1.4
294.15 K	273.66 ± 1.4
296.65 K	274.53 ± 1.4
299.15 K	275.61 ± 1.4
301.65 K	276.52 ± 1.4
304.15 K	277.29 ± 1.4
306.65 K	278.37 ± 1.4
309.15 K	279.28 ± 1.4
311.65 K	280.5 ± 1.4
314.15 K	281.58 ± 1.4
316.65 K	282.47 ± 1.4
319.15 K	283.79 ± 1.4
321.65 K	284.92 ± 1.4
324.15 K	285.45 ± 1.4
326.65 K	286.81 ± 1.4
329.15 K	288.43 ± 1.4
331.65 K	289.95 ± 1.4
334.15 K	290.13 ± 1.4
336.65 K	291.34 ± 1.5
339.15 K	291.91 ± 1.5
341.65 K	293.56 ± 1.5
344.15 K	294.16 ± 1.5
346.65 K	294.82 ± 1.5
349.15 K	295.79 ± 1.5
351.65 K	297.21 ± 1.5
353.15 K	298.14 ± 1.5

CCCCCCl [1-chloropentane]
Settings	molar heat capacity at constant pressure [J/K/mol]
284.15 K	184.57 ± 0.92
286.65 K	185.29 ± 0.93
289.15 K	185.95 ± 0.93
291.65 K	186.52 ± 0.93
294.15 K	187.16 ± 0.94
296.65 K	187.66 ± 0.94
299.15 K	188.46 ± 0.94
301.65 K	189.19 ± 0.95
304.15 K	189.81 ± 0.95
306.65 K	190.32 ± 0.95
309.15 K	190.99 ± 0.95
311.65 K	191.89 ± 0.96
314.15 K	192.65 ± 0.96
316.65 K	193.22 ± 0.97
319.15 K	194.09 ± 0.97
321.65 K	194.69 ± 0.97
324.15 K	195.06 ± 0.98
326.65 K	196.14 ± 0.98
329.15 K	196.99 ± 0.98
331.65 K	197.64 ± 0.99
334.15 K	198.46 ± 0.99
336.65 K	199.23 ± 1
339.15 K	199.92 ± 1
341.65 K	200.41 ± 1
344.15 K	201.19 ± 1
346.65 K	201.73 ± 1
349.15 K	202.54 ± 1
351.65 K	203.57 ± 1
353.15 K	204.24 ± 1

CCCCl [1-chloropropane]
Settings	molar heat capacity at constant pressure [J/K/mol]
284.15 K	128.63 ± 0.64
286.65 K	128.99 ± 0.64
289.15 K	129.53 ± 0.65
291.65 K	130.1 ± 0.65
294.15 K	130.47 ± 0.65
296.65 K	130.95 ± 0.65
299.15 K	131.33 ± 0.66
301.65 K	131.88 ± 0.66
304.15 K	132.37 ± 0.66
306.65 K	132.94 ± 0.66
309.15 K	133.4 ± 0.67
311.65 K	133.92 ± 0.67
314.15 K	134.38 ± 0.67

CCBr [bromoethane]
Settings	molar heat capacity at constant pressure [J/K/mol]
269.15 K	104.07 ± 0.52
271.65 K	104.37 ± 0.52
274.15 K	104.6 ± 0.52
276.65 K	104.85 ± 0.52
279.15 K	105.14 ± 0.53
281.65 K	105.42 ± 0.53
284.15 K	105.63 ± 0.53
286.65 K	105.91 ± 0.53
289.15 K	106.14 ± 0.53
291.65 K	106.42 ± 0.53
294.15 K	106.75 ± 0.53
296.65 K	107.09 ± 0.54
299.15 K	107.42 ± 0.54
